{"source": "patent US20040265846A1", "about": "“Adrenergic receptors” (DUKE UNIVERSITY, priority 2002, published 2004)", "key": {"human α1aAR SNPs [1]": {"system": "human α1aAR SNPs", "assay": "NE-induced desensitization of IP response, receptors with any SNP", "format": "cell-based", "settings": "high or low expression level", "quoted_text": "(§3) The extent of desensitization was expressed as percent of reduction of IP response in pretreated cells compared with the response in naive cells. n=3-6. […] High-expression clones. […] Low-expression clones. Measurement of Intracellular Inositol Phosphate (IP) Production. […] Measurement of intracellular IP production was performed under serum-free conditions. […] For all experiments, membranes were collected for receptor quantititation and cells were counted at the time of assay."}, "human α1aAR WT [2]": {"target": "T1, human α1aAR WT (Homo sapiens, UniProt P35348)", "T1 construct": "expressed in transfected cells", "T1 sequence (P35348 1-466)": "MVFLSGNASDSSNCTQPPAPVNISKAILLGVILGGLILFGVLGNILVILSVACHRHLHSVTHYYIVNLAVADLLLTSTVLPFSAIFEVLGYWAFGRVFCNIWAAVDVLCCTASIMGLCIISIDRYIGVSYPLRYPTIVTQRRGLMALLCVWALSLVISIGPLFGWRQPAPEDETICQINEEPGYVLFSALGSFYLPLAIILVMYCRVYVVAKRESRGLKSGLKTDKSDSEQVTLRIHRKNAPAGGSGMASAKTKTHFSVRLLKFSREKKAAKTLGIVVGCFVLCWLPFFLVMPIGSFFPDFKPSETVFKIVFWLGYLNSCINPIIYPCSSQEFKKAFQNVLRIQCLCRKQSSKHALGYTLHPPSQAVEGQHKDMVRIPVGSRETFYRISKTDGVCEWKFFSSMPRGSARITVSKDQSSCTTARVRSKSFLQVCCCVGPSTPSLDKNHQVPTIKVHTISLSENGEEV", "assay": "NE-induced desensitization of IP response, WT", "format": "cell-based", "settings": "10 min 10 μM NE pretreatment, compared with unpretreated", "quoted_text": "as §3"}, "human α1aAR SNPs [3]": {"system": "human α1aAR SNPs", "assay": "NE-stimulated IP production, transiently expressed polymorphic receptors", "format": "cell-based", "settings": "any polymorphic receptor, transient expression 1.30-1.98 pmol/mg protein", "quoted_text": "Effect of human α1aAR SNPs on IP signaling in transiently transfected rat-1 fibroblasts (receptor densities 1.30-1.98 pmol/mg protein). […] For each construct, IP assay, binding assay and cell number were measured in paralleled plates. […] Basal IP release.\nTransient transfection was also used to express receptors for binding and IP experiments in order to verify consistent behavior using alternative methods of protein expression.\nMeasurement of Intracellular Inositol Phosphate (IP) Production. Rat-1 cells expressing either the WT or mutated α1aAR grown on 12-well plates were labeled with [^3H]inositol for 20-24 h with 2.5 μCi/ml in complete DMEM. Measurement of intracellular IP production was performed under serum-free conditions. […] For all experiments, membranes were collected for receptor quantititation and cells were counted at the time of assay."}, "[4]": {"system": "α1aAR F308 / F312 substituted receptors", "settings": "cited from earlier work"}, "[5]": {"system": "α1aAR F163 (TM4) / F187 (TM5) mutants", "settings": "Waugh et al 2000; cited from earlier work"}, "human α1aAR SNP V311I": {"target": "T2, human α1aAR SNP V311I (Homo sapiens, UniProt P35348, V311I)", "T2 construct": "expressed in transfected cells", "T2 sequence (P35348 1-466 V311I)": "T1 sequence (P35348 1-466) with V311I", "assay": "Competition binding vs [125I]HEAT, SNP V311I", "settings": "high expressing clone"}, "human α1aAR WT [6]": {"target": "T1, human α1aAR WT", "assay": "[125I]HEAT saturation binding on membranes, WT high expressing clone", "settings": "membranes from WT α1aAR high expressing clone, rat-1 fibroblasts, 1.77±0.24 pmol/mg protein", "procedure": "(§1) Cell Culture and Transfection. Rat-1 fibroblasts were cultured in DMEM supplemented with 10% FBS at 37° C. Cells were transfected with either the WT (reference sequence with all major alleles, GenBank accession number L31774) or mutated α1aAR in pcDNA3 by calcium phosphate precipitation. For stable transfection, clones resistant to G418 (0.8 mg/ml) were isolated and tested for receptor expression. Two different expression levels were chosen for receptor functional investigation. Low receptor expression level was defined a priori as <0.5 pmol/mg total protein, while high-level expression was defined as >1.5 pmol/mg protein.\n(§2) Membrane Preparation and Radioligand Binding. Rat-1 membrane preparation and ligand binding assay using the α1AR selective antagonist, [^125I]HEAT, were performed as previously described (Schwinn et al, J. Pharmacol. Exp. Ther. 272:134-142 (1995)).\nPharmacological Characterization. In order to examine whether these polymorphic α1aARs have altered ligand binding characteristics, saturation binding isotherms were first performed to determine the dissociation constant (Kd) for the antagonist [^125I]HEAT, followed by competition assays designed to determine binding affinities for a series of α1aAR agonists and antagonists."}, "human α1aAR SNPs [7]": {"system": "human α1aAR SNPs", "settings": "receptors containing any SNP, high expressing clones"}, "human α1aAR SNPs [8]": {"target": "human α1aAR SNPs", "assay": "[125I]HEAT saturation binding on membranes, receptors containing each SNP", "settings": "expression 1.53-2.37 pmol/mg", "procedure": "In Vitro Site-Directed Mutagenesis in the aoclar. Site-directed mutagenesis was utilized to introduce mutations corresponding to each SNP in hemagglutinin-tagged human α1aAR previously placed in the expression vector pcDNA3 (Price et al, J. Biol. Chem. 277:9570-9579 (2002)). Mutagenesis was performed using the QuickChange™ Site-Directed Mutagenesis Kit (Stratagene) as recommended by the manufacture. All mutations were confirmed by DNA sequencing (Duke University DNA Analysis Facility).\nas §1, §2\nPharmacological Characterization. […]"}}, "note": "Numbering of substitutions follows the chain as printed. Read-outs that look alike come from different tables or passages of the source.", "data": [{"smiles": "NC[C@H](O)c1ccc(O)c(O)c1", "note": "[NE, (−)-norepinephrine]", "values": [{"measurement": "agonist-induced desensitization, SNP receptors vs WT", "setting": "human α1aAR SNPs [1]", "value": "no difference in agonist-induced desensitization"}, {"measurement": "lower IP production after NE pretreatment (desensitization)", "setting": "human α1aAR WT [2]; high-expression level", "value": "33.5±3.2", "unit": "%"}, {"measurement": "lower IP production after NE pretreatment (desensitization)", "setting": "human α1aAR WT [2]; low-expression level", "value": "31.0±3.1", "unit": "%"}, {"measurement": "maximum IP response vs WT", "setting": "human α1aAR SNPs [3]", "value": "no significant change"}]}, {"smiles": "COc1ccccc1N1CCN(CCCNc2c(C)c(=O)n(C)c(=O)n2C)CC1", "note": "[5-methylurapidil]", "values": [{"measurement": "affinity on substitution of F308 and F312", "setting": "[4]; Waugh et al 2001", "value": "decreased affinity"}]}, {"smiles": "CNC[C@H](O)c1ccc(O)c(O)c1", "note": "[epinephrine, (−)-epinephrine]", "values": [{"measurement": "decrease in affinity on mutation of F163 or F187", "setting": "[5]", "value": 10, "unit": "fold"}, {"measurement": "Ki increase vs WT (decrease in receptor affinity)", "setting": "human α1aAR SNP V311I", "value": "~3", "unit": "fold"}]}, {"smiles": "COc1ccccc1N1CCN(CCN2C(=O)CC3(CCCC3)CC2=O)CC1", "note": "[BMY7378]", "values": [{"measurement": "affinity on substitution of F308 and F312", "setting": "[4]; Waugh et al 2001", "value": "decreased affinity"}]}, {"smiles": "COc1cccc(OC)c1OCCNCC1COc2ccccc2O1", "note": "(stereo not drawn) [WB4101]", "values": [{"measurement": "affinity on substitution of F308 and F312", "setting": "[4]; Waugh et al 2001", "value": "decreased affinity"}]}, {"smiles": "O=C1c2ccccc2CCC1CNCCc1ccc(O)c(I)c1", "note": "(stereo not drawn) [[^125I]HEAT, ^125I-(2-β-(4-hydroxyphenyl)-ethylamineomethyl)-tetralone]", "values": [{"measurement": "Kd", "setting": "human α1aAR WT [6]", "value": "0.0421 ± 0.0065", "unit": "nM"}]}, {"smiles": "Cc1cc(C(C)(C)C)c(O)c(C)c1CC1=NCCN1", "note": "[oxymetazoline]", "values": [{"measurement": "change in affinity vs WT", "setting": "human α1aAR SNPs [7]", "value": "no change in the affinity"}]}, {"smiles": "Cc1ccc(N(CC2=NCCN2)c2cccc(O)c2)cc1", "note": "[phentolamine]", "values": [{"measurement": "affinity on substitution of F308 and F312", "setting": "[4]; Waugh et al 2001", "value": "not"}]}, {"smiles": "O=C1c2ccccc2CCC1CNCCc1ccc(O)c([125I])c1", "note": "(stereo not drawn) [[^125I]HEAT, ^125I-(2-β-(4-hydroxyphenyl)-ethylamineomethyl)-tetralone]", "values": [{"measurement": "affinity on substitution of F308 and F312", "setting": "[4]; Waugh et al 2001", "value": "not"}, {"measurement": "Kd values for [125I]HEAT compared with WT", "setting": "human α1aAR SNPs [8]", "value": "not significantly different from WT"}]}, {"smiles": "COc1cc2nc(N3CCN(C(=O)c4ccco4)CC3)nc(N)c2cc1OC", "note": "[prazosin]", "values": [{"measurement": "affinity on substitution of F308 and F312", "setting": "[4]", "value": "decreased affinity"}]}]}
